In publication PMC2410110, “Differential effects of ketoconazole on exposure to temsirolimus following intravenous infusion of temsirolimus” (British Journal of Cancer, 2008):
Several values for one entry are separate records, joined by “and”; a condition that tells them apart may be missing. Equal entries are not always repeated. Entries after “also recorded” stand apart in the source; their conditions may differ. Where two headings read alike, the source gives them in different places.

Tests used:
CYP3A4 [1] = test system: CYP3A4; set-up: method as in Cai et al, 2007; settings: in vitro liver microsome systems, ref Cai et al, 2007, cited from earlier work
CYP3A4 [2] = settings: read-out: Ki for inhibition of the metabolism of sirolimus; reference not given; cited from earlier work
[3] = Drug interaction study: whole blood pharmacokinetics of temsirolimus and sirolimus after single 5-mg i.v. temsirolimus alone or with oral ketoconazole; format: in vivo, human; settings: for Intersubject variability, CV for Cmax and AUC: both treatment periods; for Cmax / AUC / AUC(0-t) / Vd / half-life / Tmax / clearance: human; for Cmax / AUC / AUC(0-t) / Vd / half-life / Tmax / T1/2 / clearance / CL / Vss: whole blood
Experimental: (§1) In this open-label, non-randomised, single-centre, two-period, sequential study, subjects received temsirolimus (Torisel™; Wyeth Pharmaceuticals, Philadelphia, PA, USA) alone, followed by temsirolimus in combination with ketoconazole after a 14-day washout period. On study day 1 of the first period, subjects received 25 mg i.v. diphenhydramine, followed 30 min later by 5 mg i.v. temsirolimus over 30 min. Subjects remained in the clinical unit until the 72-h blood collection (study day 4) and returned for subsequent blood draws at designated time points over the next 4 days (study days 5–8). Study days 9 through 13 were part of the washout period. During the second period, subjects returned to the clinical unit on study day 14. On study day 15, they received 400 mg oral ketoconazole, followed 90 min later by a 25-mg i.v. dose of diphenhydramine. Thirty minutes later, subjects were administered a 30-min i.v. infusion of 5 mg temsirolimus. Subjects remained in the clinical unit until the 72-h blood draw (study day 18) and returned for all subsequent blood draws. They continued to take 400 mg ketoconazole orally each day through study day 21. Subjects fasted for 10 h before receiving temsirolimus and for 4 h afterward.
Blood samples were collected predose, immediately before the end of the infusion (0.5 h), and at 1, 3, 8, 24, 48, 72, 96, 120, 144, and 168 h after administration of temsirolimus on study days 1 and 15. Samples were collected in evacuated tubes containing ethylenediaminetetraacetic acid (EDTA) and gently mixed, then stored upright at −70°C until shipment.
Analytes and internal standard were extracted from a 1-ml sample of EDTA-treated whole blood by liquid–liquid extraction with 1-chlorobutane and separated with a YMC PDS AQ HPLC column (Waters, Milford, MA, USA). Analytes were detected by tandem mass spectrometry using atmospheric pressure chemical ionisation. The concentration of analytes was determined with calibration standards using linear least squares regression.
Pharmacokinetic parameters for temsirolimus were analysed for each subject for each study period using non-compartmental methods ([Jusko, 1992]). Scheduled times were used for all calculations. The Cmax and the time to reach Cmax (Tmax) were determined visually from the concentration–time curves. The terminal elimination rate constant, λz, was estimated by log-linear regression of the terminal portion of the whole blood concentration–time curves. The terminal elimination half-life (T1/2) was calculated as 0.693/λz. The area under the concentration–time curve (AUCT) was calculated using the trapezoidal rule for the ascending portion of the curve, and the log-trapezoidal rule for the descending portion of the curve. […] Clearance (CL) is the volume of plasma cleared of the drug per unit time (dose/AUC). Apparent clearance was corrected for the fraction of the dose that was metabolised (CL/fm). The apparent volume of distribution during the terminal phase (Vz) was calculated by (CL/fm)/λz. The calculation of the steady-state volume of distribution (Vdss) incorporated dissociation and association rates of protein and tissue binding. Vdss was defined as (dose/AUC)MRTu, where MRTu is the mean residence time of the unbound drug in the plasma ([Berezhkovskiy, 2004]).
(§2) The geometric mean relative bioavailability of Cmax, AUC, and AUCT and the 90% confidence limits were calculated using ANOVA to determine the magnitude of the effect of ketoconazole. Vital signs, ECG intervals, and laboratory parameters were screened for prespecified, potentially clinically important criteria.

[4] = set-up: method as in Boni et al, 2007; settings: healthy adults; with rifampin; ref Boni et al, 2007; cited from earlier work
[5] = set-up: method as in Boni et al, 2007; settings: cancer patients; ref Boni et al, 2007; cited from earlier work
[6] = set-up: method as in Atkins et al, 2004; settings: ref Atkins et al, 2004, cited from earlier work
[7] = set-up: method as in Zimmerman, 2004; settings: oral sirolimus; ref Zimmerman, 2004; cited from earlier work
[8] = set-up: method as in Punt et al, 2003; settings: stored at −70°C; ref Punt et al, 2003; cited from earlier work
[9] = Safety: treatment-emergent adverse events in healthy subjects receiving temsirolimus alone or with ketoconazole; format: in vivo, human
Experimental: as §1, §2

[10] = 5 mg i.v. temsirolimus + 400 mg oral ketoconazole vs temsirolimus alone
[11] = 5 mg i.v. temsirolimus + ketoconazole vs temsirolimus alone
[12] = intravenous, single 5 mg i.v. temsirolimus + ketoconazole 400 mg oral, healthy subjects, mean (CV)
[13] = intravenous, single 5 mg i.v. temsirolimus + ketoconazole 400 mg oral, mean (CV)
[14] = iv, single 5 mg i.v. temsirolimus alone, healthy subjects, mean (CV)
[15] = iv, single 5 mg i.v. temsirolimus alone, mean (CV)
[16] = iv, 5 mg, 5 mg i.v. temsirolimus, irrespective of treatment (with or without ketoconazole), read-out: Time to maximal concentration
[17] = iv, 5 mg, single 5 mg i.v. temsirolimus alone, mean (CV)
[18] = iv, 5 mg, single 5 mg i.v. temsirolimus alone, mean (CV), read-out: Tmax
[19] = single 5 mg i.v. temsirolimus + ketoconazole 400 mg oral, mean (CV)
[20] = single 5 mg i.v. temsirolimus alone, mean (CV)
[21] = with ketoconazole relative to single 5-mg i.v. temsirolimus alone, 90% CI in brackets
[22] = single 25-mg dose of temsirolimus, patients with RCC, CV=17%

CO[C@H]1C[C@@H]2CC[C@@H](C)[C@@](O)(O2)C(=O)C(=O)N2CCCC[C@H]2C(=O)O[C@H]([C@H](C)C[C@@H]2CC[C@@H](O)[C@H](OC)C2)CC(=O)[C@H](C)/C=C(\C)[C@@H](O)[C@@H](OC)C(=O)[C@H](C)C[C@H](C)/C=C/C=C/C=C/1C [Sirolimus]
Increase in mean AUC with ketoconazole compared with temsirolimus alone [3, 10]: 3.1 fold and 3.2 fold
Increase in mean Cmax with ketoconazole compared with temsirolimus alone [3, 10]: 2.2 fold
Decrease in mean apparent metabolic clearance (CL/fm) with ketoconazole [3, 11]: 3.2 fold
Intersubject variability, CV for Cmax and AUC [3]: < 33%
Cmax [3, 12]: 29 ng/mL
AUC [3, 13]: 3890 ng·h/mL
AUC(0-t) [3, 13]: 2410 ng·h/mL
Cmax [3, 14]: 13.3 ng/mL
AUC [3, 15]: 1200 ng·h/mL
AUC(0-t) [3, 15]: 918 ng·h/mL
Vd ([3]; intravenous, metabolite sirolimus, single 5 mg i.v. temsirolimus + ketoconazole 400 mg oral, mean (CV), read-out: Vss/fm): 227 L
Vd ([3]; intravenous, metabolite sirolimus, single 5 mg i.v. temsirolimus + ketoconazole 400 mg oral, mean (CV), read-out: Vz/fm): 220 L
half-life [3, 13]: 113 h
Tmax [3, 16]: 3 h
Vd ([3]; iv, 5 mg, metabolite sirolimus, single 5 mg i.v. temsirolimus alone, mean (CV), read-out: Vss/fm): 494 L
Vd ([3]; iv, 5 mg, metabolite sirolimus, single 5 mg i.v. temsirolimus alone, mean (CV), read-out: Vz/fm): 480 L
half-life [3, 17]: 75 h
Tmax [3, 18]: 3.3 h
Reduction in apparent clearance with ketoconazole ([3]; metabolite sirolimus, 5 mg i.v. temsirolimus + ketoconazole vs temsirolimus alone): 69%
Carryover from treatment period 1 to 2, contribution to mean total AUC ([3]; period 2, mean): 1.9%
Carryover from treatment period 1 to 2, contribution to total AUC, range ([3]; period 2, range): 1.1–3.7%
T1/2 [3, 19]: 112.8 (18.1%) h
T1/2 [3, 20]: 74.8 (10.8%) h
Reduction of AUC by rifampin [4]: 56%
Reduction in AUC with concomitant enzyme-inducing anticonvulsant agents [5]: 45%
Reduction in Cmax with concomitant enzyme-inducing anticonvulsant agents [5]: 67%
Cmax as % of temsirolimus Cmax values ([6]; after temsirolimus): 10–20%
Increase in blood levels with ketoconazole [7]: ~10 fold
Stability in whole blood [8]: stable

CO[C@H]1C[C@@H]2CC[C@@H](C)[C@@](O)(O2)C(=O)C(=O)N2CCCC[C@H]2C(=O)O[C@H]([C@H](C)C[C@@H]2CC[C@@H](OC(=O)C(C)(CO)CO)[C@H](OC)C2)CC(=O)[C@H](C)/C=C(\C)[C@@H](O)[C@@H](OC)C(=O)[C@H](C)C[C@H](C)/C=C/C=C/C=C/1C [Temsirolimus]
Decrease in mean clearance with ketoconazole [3, 11]: approximately 10%
Effect of ketoconazole coadministration on Cmax or AUC ([3]; 400 mg oral ketoconazole with 5 mg i.v. temsirolimus, healthy subjects): no significant effect; also recorded: No substantial differences
Intersubject variability, CV for Cmax and AUC [3]: < 16%
Cmax [3, 12]: 263 ng/mL
AUC [3, 13]: 992 ng·h/mL
AUC(0-t) [3, 13]: 969 ng·h/mL
Cmax [3, 14]: 278 ng/mL
AUC [3, 15]: 886 ng·h/mL
AUC(0-t) [3, 15]: 873 ng·h/mL
clearance [3, 13]: 85.7 mL/min
half-life [3, 13]: 23.7 h
Tmax ([3]; intravenous, single 5 mg i.v. temsirolimus + ketoconazole 400 mg oral, mean (CV), read-out: Tmax): 0.5 h
Vd ([3]; intravenous, single 5 mg i.v. temsirolimus + ketoconazole 400 mg oral, mean (CV), read-out: Vss): 92 L
Vd ([3]; intravenous, single 5 mg i.v. temsirolimus + ketoconazole 400 mg oral, mean (CV), read-out: Vz): 174 L
Tmax [3, 16]: 0.5 h
clearance [3, 17]: 95.3 mL/min
half-life [3, 17]: 22.3 h
Tmax [3, 18]: 0.5 h
Vd ([3]; iv, 5 mg, single 5 mg i.v. temsirolimus alone, mean (CV), read-out: Vss): 87 L
Vd ([3]; iv, 5 mg, single 5 mg i.v. temsirolimus alone, mean (CV), read-out: Vz): 182 L
CL [3, 19]: 5.1 (13.8%) l h^−1
Vss [3, 19]: 91.5 (17.5%) l
CL [3, 20]: 5.7 (11.0%) l h^−1
Vss [3, 20]: 86.8 (14.6%) l
Least squares geometric mean ratio for AUC [3, 21]: 110%
Least squares geometric mean ratio for AUCT [3, 21]: 109%
Least squares geometric mean ratio for Cmax [3, 21]: 94%
90% CIs for the least squares geometric mean ratios of Cmax, AUCT, and AUC ([3]; with ketoconazole vs temsirolimus alone): 80–125%
Effect of rifampin on AUC [4]: no effect
Tolerability ([9]; human, in vivo): well tolerated
Herpes simplex (skin and appendages) ([9]; temsirolimus 5 mg + ketoconazole 400 mg, n=14): 0 n (%)
Herpes simplex (skin and appendages) ([9]; temsirolimus 5 mg alone, n=17): 1 (5.9) n (%)
Deaths or serious adverse events ([9]; temsirolimus alone and with ketoconazole): No deaths or serious adverse events
Reduction in Cmax with concomitant enzyme-inducing anticonvulsant agents [5]: 36%
Mean area under the curve (AUC) [6, 22]: 1580 ng·h/mL
Mean maximum concentration (Cmax) in whole blood [6, 22]: 595 ng/mL
Stability in whole blood [8]: stable
